Data on 4 molecules can be found in patent publication US20100323011A1, “PHARMACEUTICAL COMPOSITIONS OF A COMBINATION OF METFORMIN AND A DIPEPTIDYL PEPTIDASE-IV INHIBITOR” (priority 2008, published 2010).

Structures are written as SMILES. Where a name gives a salt, the structure may show the parent alone.

For series [1] the following is noted: oral administration to human Type 2 diabetics; cited from earlier work.
The nature of series [2]: In vitro dissolution of sitagliptin phosphate from the drug film layer. The series is classed as physicochemical. Particulars: FIG. 4.

For the molecule `N#C[C@@H]1CCCN1C(=O)CNC12CC3CC(CC(O)(C3)C1)C2` [vildagliptin], the “effect on fasting glucose, postprandial glucose excursion and HbA1c” value (shortened to “effect on fasting glucose”) in series [1] is “reduce fasting glucose and postprandial glucose excursion”.
Regarding `Cn1c(=O)cc(N2CCC[C@@H](N)C2)n(Cc2ccccc2C#N)c1=O` [alogliptin], the “effect on fasting glucose” value in series [1] was “reduce fasting glucose and postprandial glucose excursion”.
Regarding `N[C@@H](CC(=O)N1CCn2c(nnc2C(F)(F)F)C1)Cc1cc(F)c(F)cc1F` [sitagliptin phosphate, dihydrogenphosphate salt of (2R)-4-oxo-4-[3-(trifluoromethyl)-5,6-dihydro[1,2,4]triazolo[4,3-a]pyrazin-7(8H)-yl]-1-(2,4,5-trifluorophenyl)butan-2-amine], in series [2] (comparator JANUMET (immediate-release metformin HCl and sitagliptin phosphate)), the “dissolution of sitagliptin phosphate compared with sitagliptin phosphate in JANUMET” value is recorded as “comparable”. The “time to complete dissolution of sitagliptin phosphate from the drug film layer” value in series [2] (drug film layer of the composition) was ≤ 30 min.
For `N[C@@H](CC(=O)N1CCn2c(nnc2C(F)(F)F)C1)Cc1cc(F)c(F)cc1F` [sitagliptin, (2R)-4-oxo-4-[3-(trifluoromethyl)-5,6-dihydro[1,2,4]triazolo[4,3-a]pyrazin-7(8H)-yl]-1-(2,4,5-trifluorophenyl)butan-2-amine], the “effect on fasting glucose” value in series [1] was “reduce fasting glucose and postprandial glucose excursion”.
